Experimental data published in patent US20250268921A1, “OPTHALMIC FORMULATIONS AND USES THEREOF” (TelomEYE Pharmaceutical Corporation, priority 2018, published 2025).

Legend:
[1] = system: telomere length in corneal endothelial cells; test: Telomere length (TAT analysis) in corneal endothelial cells from treated rabbits; format: in vivo, rabbit; conditions: 6 months
Procedure: Samples were received in paraffin.
The sample is filtered to remove collagen residues. Telomere lengths were assessed using Life Length's.
All measurements were performed in quintuplicate.

telomerase = molecular target: T1, telomerase (Homo sapiens, UniProt O14746); test: TeloTAGGG Telomerase PCR ELISA assay in HCEC-B4G12; format: cell-based; conditions: for % Telomerase Activity ± SD: 30 hours
T1 construct: endogenous in cells; host or cells: HCEC-B4G12 (DSMZ ACC 647)
Procedure: TeloTAGGG™ Telomerase PCR ELISA assay was performed as described by manufacturer (Sigma-Aldrich).

[2] = Rabbit ocular pharmacokinetic model; format: in vivo; conditions: zero hour, after 5 days of eye drops, without last administration
Procedure: At the end of the fifth day, blood, tear, cornea, anterior chamber fluid, iris and lens tissues were collected at 30, 60, 120, 240 and 480 minutes following the last administration of 4 μg/50 μl. […] According to the results of the drug analysis at the 30th minute, the highest drug concentrations of 215.56 ng in the corneal tissue, 4 ng in the anterior chamber and 14.12 ng in the iris were detected individually, proving that the drug passes into the corneal tissue after application to the corneal surface and reaches the intraocular tissues.

corneal endothelium = test: Histopathology of corneal layer, treated rabbits; format: in vivo, rabbit
Procedure: Eye tissue was fixed with 4% formaldehyde and embedded in paraffin for the histopathological assessment and processed according to routine light microscope tissue processing methods. 5 μm tissue sections stained with Hematoxylin-Eosin (H&E) were examined and photographed by Leica image analyzing system (Leica, Germany). All specimens were evaluated individually by three histologists who were blinded to the drug type and the treatment times. Histopathology was also performed to evaluate the corneal opacity, neovascularization, inflammatory cell density, vessel size and edema. Moreover, lens structure, scleral, choroidal and macular changes were analyzed by histopathology.

[3] = system: corneal endothelial cells; test: Corneal endothelial cell density (CD) by specular microscopy, rabbits treated 6 months; format: in vivo, rabbit
Procedure: All experiments were designed and carried out in a randomized, double blind manner using placebos. Rabbits were housed for one week prior to the study, fed on standard laboratory food and allowed free access to water in a room at standard temperature and humidity conditions in a 12-h light/12-h dark cycle.
All analyses were carried out using GraphPad Prism 5.0 (GraphPad Software, San Diego, CA, USA). Differences were considered to be significant at a level of P: : : : 0.001.

T1 sequence (O14746 whole entry): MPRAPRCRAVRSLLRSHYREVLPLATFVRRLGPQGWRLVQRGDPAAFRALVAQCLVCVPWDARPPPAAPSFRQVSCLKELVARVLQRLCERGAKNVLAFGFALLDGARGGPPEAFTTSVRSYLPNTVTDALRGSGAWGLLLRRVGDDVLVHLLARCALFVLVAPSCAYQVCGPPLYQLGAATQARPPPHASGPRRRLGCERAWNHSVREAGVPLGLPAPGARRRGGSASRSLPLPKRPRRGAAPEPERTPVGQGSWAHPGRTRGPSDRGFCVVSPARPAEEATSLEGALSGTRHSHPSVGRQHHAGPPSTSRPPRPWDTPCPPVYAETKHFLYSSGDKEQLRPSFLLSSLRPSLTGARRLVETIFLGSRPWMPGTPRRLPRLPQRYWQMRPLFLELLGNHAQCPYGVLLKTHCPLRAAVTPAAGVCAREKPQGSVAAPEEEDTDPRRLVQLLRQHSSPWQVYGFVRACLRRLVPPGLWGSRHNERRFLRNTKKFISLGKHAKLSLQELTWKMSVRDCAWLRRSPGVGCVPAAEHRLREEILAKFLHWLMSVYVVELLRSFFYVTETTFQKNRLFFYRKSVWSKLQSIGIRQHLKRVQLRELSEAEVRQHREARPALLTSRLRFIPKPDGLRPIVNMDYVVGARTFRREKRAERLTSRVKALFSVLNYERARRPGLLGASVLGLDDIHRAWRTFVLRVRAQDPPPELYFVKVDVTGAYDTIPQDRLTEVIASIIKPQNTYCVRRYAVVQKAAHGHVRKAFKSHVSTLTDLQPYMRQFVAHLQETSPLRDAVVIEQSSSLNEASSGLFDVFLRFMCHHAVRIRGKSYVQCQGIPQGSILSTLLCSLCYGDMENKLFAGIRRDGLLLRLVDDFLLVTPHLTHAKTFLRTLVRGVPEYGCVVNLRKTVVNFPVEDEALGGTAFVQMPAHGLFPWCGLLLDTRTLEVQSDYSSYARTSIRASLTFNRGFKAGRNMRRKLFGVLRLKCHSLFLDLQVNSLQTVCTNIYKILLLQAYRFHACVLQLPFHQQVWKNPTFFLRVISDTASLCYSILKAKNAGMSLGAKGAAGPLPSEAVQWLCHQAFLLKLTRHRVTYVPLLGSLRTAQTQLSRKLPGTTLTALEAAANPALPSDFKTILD

CC(C)(O)[C@@H]1CC[C@](C)([C@H]2[C@@H](O)C[C@@]3(C)[C@@H]4C[C@H](O)[C@H]5C(C)(C)[C@@H](O)CC[C@@]56C[C@@]46CC[C@]23C)O1 [cycloastragenol, Cycloastragenol]
2am Percentile Length ([1]; GROUP B, 25 ng/ml): 6,968 Base Pairs
Median Length ([1]; GROUP B, 25 ng/ml): 11,431 Base Pairs
Telomeres <3 Kbp ([1]; GROUP B, 25 ng/ml): 3.7%
2am Percentile Length ([1]; GROUP C, 100 ng/ml): 7,374 Base Pairs
Median Length ([1]; GROUP C, 100 ng/ml): 11,543 Base Pairs
Telomeres <3 Kbp ([1]; GROUP C, 100 ng/ml): 3.1%
2am Percentile Length ([1]; GROUP D, 500 ng/ml): 7,113 Base Pairs
Median Length ([1]; GROUP D, 500 ng/ml): 11,552 Base Pairs
Telomeres <3 Kbp ([1]; GROUP D, 500 ng/ml): 3.6%
% Telomerase Activity ± SD (telomerase; 3.8 ng/ML): 108 ± 5.27%
% Telomerase Activity ± SD (telomerase; 7.8 ng/ML): 114.42 ± 2.79%
% Telomerase Activity ± SD (telomerase; 15.6 ng/ML): 148.94 ± 49.54%
% Telomerase Activity ± SD (telomerase; 125 ng/ML): 43.14 ± 0.24%
% Telomerase Activity ± SD (telomerase; 250 ng/ML): 46.28 ± 2.02%
% Telomerase Activity ± SD (telomerase; 500 ng/ML): 54.38 ± 2.78%
% Telomerase Activity ± SD (telomerase; 10000 ng/ML, placebo (1% DMSO) = 100%): 74.0 ± 10.45%
telomerase activity compared with negative control (telomerase; 3.8-62.5 ng/ml): higher telomerase activity than negative control
telomerase activity, times higher than the negative control (telomerase; 62.5-31.25 ng/ml): 7-10 times
telomerase activity compared with negative control (telomerase; 125-1000 ng/ml): lower than negative control
concentration giving the highest activity of telomerase (telomerase; HCEC-B4G12): 62.5 ng/mL
concentration in eye tissues [2]: below 1 ng
histopathological finding, corneal endothelium (corneal endothelium; Group B, 25 ng/ml, compared to group A): cell losses were observed in very few areas
histopathological finding, corneal endothelium (corneal endothelium; Group C, 100 ng/ml): configuration and number of cells were found to be close to Group NC
histopathological finding, corneal endothelium (corneal endothelium; Group D, 500 ng/ml, compared to Group B and Group C): more hypertrophic and place cell losses
Cell Density (CD) of cornea layer endothelial cells ([3]; Group B, 25 ng/ml, month 0): 2531.00
Cell Density (CD) of cornea layer endothelial cells ([3]; Group B, 25 ng/ml, month 1): 2612.38
change in cell density versus month 0 ([3]; Group B, 25 ng/ml, month 1): 3%
higher cell density than negative control group ([3]; Group B, 25 ng/ml, month 1): about 4%
higher cell density than placebo group ([3]; Group B, 25 ng/ml, month 1): about 4%
Cell Density (CD) of cornea layer endothelial cells ([3]; Group B, 25 ng/ml, month 3): 2604.50
change in cell density versus month 0 ([3]; Group B, 25 ng/ml, month 3): 3%
higher cell density than negative control group ([3]; Group B, 25 ng/ml, month 3): ~18%
higher cell density than placebo group ([3]; Group B, 25 ng/ml, month 3): ~18%
Cell Density (CD) of cornea layer endothelial cells ([3]; Group B, 25 ng/ml, month 6): 2545.88
change in cell density versus month 0 ([3]; Group B, 25 ng/ml, month 6): 4%
higher cell density than negative control group ([3]; Group B, 25 ng/ml, month 6): ~19%
higher cell density than placebo group ([3]; Group B, 25 ng/ml, month 6): ~20%
Cell Density (CD) of cornea layer endothelial cells ([3]; Group C, 100 ng/ml, month 0): 2689.88
Cell Density (CD) of cornea layer endothelial cells ([3]; Group C, 100 ng/ml, month 1): 2741.13
Cell Density (CD) of cornea layer endothelial cells ([3]; Group C, 100 ng/ml, month 3): 2453.88
Cell Density (CD) of cornea layer endothelial cells ([3]; Group C, 100 ng/ml, month 6): 2472.38
Cell Density (CD) of cornea layer endothelial cells ([3]; Group D, 500 ng/ml, month 0): 2875.13
Cell Density (CD) of cornea layer endothelial cells ([3]; Group D, 500 ng/ml, month 1): 2835.38
Cell Density (CD) of cornea layer endothelial cells ([3]; Group D, 500 ng/ml, month 3): 2498.50
Cell Density (CD) of cornea layer endothelial cells ([3]; Group D, 500 ng/ml, month 6): 2488.88
